Assays:
VEGFD = experiment: qRT-PCR analysis of VEGFD expression in hippocampal neurons; type: cell-based, mice; settings: hippocampal neurons infected with rAAV
Protocol: Total RNA was isolated at DIV10 to DIV13 from hippocampal primary neuron cultures or isolated brain tissues with Rneasy Mini Kit (Qiagen, Hilden, Germany) including an optional Dnase I treatment at room temperature for 15 min according to manufacturer's instructions (Qiagen). 1.2 μg of extracted RNA was reverse transcribed into first strand cDNA using High Capacity cDNA Reverse Transcription kit (Applied Biosystems, Foster City, Calif.).
Quantitative reverse transcriptase PCR (qRT-PCR) was done on an ABI7300 thermal cycler using Universal qRT-PCR master mix with TaqMan Gene Expression Assays for the indicated genes (Applied Biosystems). The following TaqMan Gene Expression Assays were used in this study: Gusb (Mm00446953_m1), cFos (Mm00487425_m1), VEGFD (Mm00438965_m1), VEGFC (Mm01202432_m1), VEGF (Mm01281449_m1), VEGFR3 (Mm01292618_m1), beta-actin (Mm00607939_s1), beta-2 microglobulin (Mm00437762_m1), CBP (Mm01342435_m1), p38 MAPK alpha (Mm00442497_m1), p38 MAPK beta (Mm00440955_m1). Expression of target genes was normalized against the expression of Gusb as endogenous control gene. Data were derived from at least 5 independent experiments.

C57BL/6 mice = experiment: Morris water maze; type: in vivo
Protocol: rAAVs were delivered by stereotaxic injection into the right dorsal hippocampus of 2 months old male C57BL/6 mice. For the Golgi staining-based morphometric analysis, viral particles were unilaterally injected over a period of 20 min at the following coordinates relative to Bregma: anteroposterior, −2.1 mm; mediolateral, −1.4 mm; dorsoventral, −1.4 to −1.8 mm from the skull surface. For behavior experiments mice were injected bilaterally.
The behavioral experiments started three weeks after stereotaxic delivery of rAAVs. Mice were habituated to the experimental room and handled once a day for three consecutive days before testing started. Two different sets of mice were used for Morris water maze and contextual fear conditioning experiments. At the end of the experiments, virus infection was assessed.
Mice were first tested in the hidden-platform version and next in the visible-platform version of the water maze. The water maze consisted of a circular pool (120 cm diameter) filled with opaque water (water was made opaque with non-toxic white paint). The platform (10 cm diameter) was submerged 1 cm below the water level. On the first day of the hidden-platform version, mice were habituated to the water and the platform for two 60 seconds trials. In each habituation trial, mice were allowed to swim for 30 seconds and then placed on the platform for another 30 seconds. During the acquisition phase, mice were placed four times a day into a pool with a submerged platform located in a fixed position (approximately 5 minutes inter-trial interval) for four days. […] On the fifth day, mice were given a 60 second probe trial, for which the platform was not in the pool. This was followed by four more days of training. A second probe trial was given on the tenth day. In the visible-platform version, mice were trained to find the platform using a proximal visible cue (red ball placed 10 cm above the platform). […] The path of the mouse was recorded using a video tracking system (ANY-Maze, Stoelting, Ireland).

For “shVEGFD: shRNA targeting mouse VEGFD mRNA (GGGCTTCAGGAGCGAACAT; SEQ ID NO: 1), expressed from rAAV vector or plasmid with U6 promoter”, the “VEGFD mRNA levels” value (VEGFD) was “reduced VEGFD mRNA levels”, the Swimming speed (C57BL/6 mice; hidden-platform acquisition, versus rAAV-shSCR) was “not different between the two groups” and the “time to find hidden platform (escape latency), effect of treatment” value (C57BL/6 mice; hidden-platform version, versus rAAV-shSCR) was “no effect of treatment was observed”. The “time spent in quadrants during probe trial” value (C57BL/6 mice; probe trial, 60 sec) was “spent similar amounts of time in the different quadrants”.

Source: US20120308554A1, “VEGF-D/VEGFR2/3-MEDIATED REGULATION OF DENDRITES” (UNIVERSITAT HEIDELBERG, priority 2011, published 2012)
